Source: article PMC5789083, “Mechanisms driving the antibacterial and antibiofilm properties of Hp1404 and its analogue peptides against multidrug-resistant Pseudomonas aeruginosa” (Scientific Reports, 2018)
Where no end group is shown, it is not given here.

These substances were tested on HaCaT cells (assay: Cytotoxicity, MTT assay). Details: 50 µM, 24 h.
Assay type: cell-based, human
Protocol: We used the MTT assay to evaluate the toxicity of the peptides toward human skin epithelial cells (HaCaT) as previously described. Briefly, HaCaT cells were seeded at a density of 2 × 10^4 cells per well in 96-well microtiter plates in Dulbecco’s modified Eagle’s medium (DMEM) containing 10% foetal bovine serum (FBS) at 37 °C under 5% CO2 atmosphere. The next day, peptides were added to each well at various final concentrations (higher concentration of 200 µM). After 24 h incubation, culture supernatants were removed. 0.5 mg/mL MTT was added to each well, and the plates were incubated for 4 h at 37 °C. The medium was replaced by dimethyl sulfoxide (DMSO) to dissolve the formazan crystals formed in the wells. The absorbance at 570 nm was measured using a Versa-Max microplate ELISA reader (Molecular Devices). The viability rate was calculated using the following formula: Cell viability (%) = (absorbance of treated sample)/(absorbance of control) × 100.

**Q.** How did the “survival rate of HaCaT cells” value turn out when ILKKLLKKVKSI-NH2 [Hp1404-T1d] was run?
**A.** 33%

What follows are substances tested on P. aeruginosa 27853 (assay: not given). Details: CaCl2 1.25 mM.
Assay type: cell-based, Pseudomonas aeruginosa
Protocol: (§1) We examined the activity of each peptide against both pseudomonas aeruginosa and multidrug-resistant strains. The minimal inhibitory concentrations (MICs) of peptides were determined using the broth micro-dilution assay as described previously. Briefly, bacterial strains were cultivated with shaking overnight at 37 °C. The next day, they were diluted to a density of 2 × 10^5 CFU/mL with growth medium. Peptides were serially diluted with 10 mM sodium phosphate buffer. 50 µL bacterial aliquots were mixed with an equal volume of peptide solution, and incubated at 37 °C for 18–24 h. Inhibition of bacterial growth was determined by measuring the absorbance at 600 nm using a Versa Max microplate reader (Molecular Devices, Sunnyvale, CA, USA). The test was performed in triplicate.
The effects of various cations on the antibacterial activities of the parental and analogue peptides against P. aeruginosa 27853 were evaluated as previously described. Bacteria was treated with peptides at a final concentration 25 µM in the presence of physiological salts such as NaCl (50 mM, 100 mM, and 150 mM), CaCl2 (1.25 mM, 2.5 mM, and 5 mM), or MgCl2 (0.5 mM, 1 mM, and 2 mM). The MIC values were determined as described above.

**Q.** With ILKKLLKKVKSI-NH2 [Hp1404-T1d] as the substance, how does the MIC read?
**A.** 12.5 µM

Same assay, conditions: CaCl2 2.5 mM

**Q.** ILKKLLKKVKSI-NH2 [Hp1404-T1d] was tested. Which MIC did it give?
**A.** 25 µM

Same assay, conditions: CaCl2 5 mM

**Q.** With ILKKLLKKVKSI-NH2 [Hp1404-T1d] as the substance, how does the MIC read?
**A.** >25 µM

Same assay, conditions: MgCl2 0.5 mM

**Q.** ILKKLLKKVKSI-NH2 [Hp1404-T1d] was tested. Which MIC did it give?
**A.** 3.13 µM

Same assay, conditions: MgCl2 1 mM

**Q.** ILKKLLKKVKSI-NH2 [Hp1404-T1d] was tested. Which MIC did it give?
**A.** 6.25 µM

Same assay, conditions: MgCl2 2 mM

**Q.** With ILKKLLKKVKSI-NH2 [Hp1404-T1d] as the substance, how does the MIC read?
**A.** 12.5 µM

Same assay, conditions: NaCl 50 mM

**Q.** For ILKKLLKKVKSI-NH2 [Hp1404-T1d], which MIC is on record?
**A.** 12.5 µM

Same assay, conditions: NaCl 100 mM

**Q.** ILKKLLKKVKSI-NH2 [Hp1404-T1d] was tested. Which MIC did it give?
**A.** 12.5 µM

Same assay, conditions: NaCl 150 mM

**Q.** How did the MIC turn out when ILKKLLKKVKSI-NH2 [Hp1404-T1d] was run?
**A.** 25 µM

The substances below were run on P. aeruginosa strains (biofilm formation) (assay: not given). Details: P. aeruginosa 434; 24 h, 37 °C, crystal violet OD595.
Assay type: cell-based, Pseudomonas aeruginosa
Protocol: To evaluate the ability of bacterial strains to form biofilms either in the absence or presence of peptides, antibiotic-susceptible P. aeruginosa (ATCC 27853), and various strains of MDR P. aeruginosa were cultured in nutrient broth (NB). […]. The biofilms were fixed with 100% methanol for 15 min, stained with 0.1% crystal violet (CV) for 1 h, and rinsed three times with distilled water (dH2O). After the addition of 95% ethanol, biofilm mass was quantified by measuring OD at 595 nm using a Versa-Max microplate ELISA reader (Molecular Devices). Results were expressed as the percentage of biofilm formed with respect to the control. […] All experiments were performed at least in triplicate.

**Q.** ILKKLLKKVKSI-NH2 [Hp1404-T1d] was tested. Which MBIC did it give?
**A.** 12.5 µM

Same assay, conditions: P. aeruginosa 559; 24 h, 37 °C, crystal violet OD595

**Q.** Which MBIC does the source give for ILKKLLKKVKSI-NH2 [Hp1404-T1d] here?
**A.** 12.5 µM

Same assay, conditions: P. aeruginosa 778; 24 h, 37 °C, crystal violet OD595

**Q.** ILKKLLKKVKSI-NH2 [Hp1404-T1d] was tested. Which MBIC did it give?
**A.** 12.5 µM

Same assay, conditions: P. aeruginosa 1034; 24 h, 37 °C, crystal violet OD595

**Q.** For ILKKLLKKVKSI-NH2 [Hp1404-T1d], which MBIC is on record?
**A.** 12.5 µM

Same assay, conditions: P. aeruginosa 1162; 24 h, 37 °C, crystal violet OD595

**Q.** For ILKKLLKKVKSI-NH2 [Hp1404-T1d], which MBIC is on record?
**A.** 6.25 µM

Same assay, conditions: P. aeruginosa 3399; 24 h, 37 °C, crystal violet OD595

**Q.** How did the MBIC turn out when ILKKLLKKVKSI-NH2 [Hp1404-T1d] was run?
**A.** 25 µM

Same assay, conditions: P. aeruginosa 3543; 24 h, 37 °C, crystal violet OD595

**Q.** How did the MBIC turn out when ILKKLLKKVKSI-NH2 [Hp1404-T1d] was run?
**A.** >50 µM

Same assay, conditions: P. aeruginosa 4007; 24 h, 37 °C, crystal violet OD595

**Q.** With ILKKLLKKVKSI-NH2 [Hp1404-T1d] as the substance, how does the MBIC read?
**A.** 50 µM

Same assay, conditions: P. aeruginosa 27853; 5 × 10^5 CFU/mL, 0.2% glucose, 24 h, 37 °C, crystal violet OD595

**Q.** How did the MBIC turn out when ILKKLLKKVKSI-NH2 [Hp1404-T1d] was run?
**A.** 12.5 µM

The substances below were run on Pseudomonas aeruginosa and MRPA strains (assay: microbe, parasite or virus in culture). Details: P. aeruginosa 138 (multidrug-resistant); broth micro-dilution, 37 °C, 18–24 h, triplicate.
Assay type: cell-based
Excerpt: Gram-negative (Pseudomonas aeruginosa ATCC 27853) bacterial strains were obtained from the ATCC (American Type Culture Collection; Manassas, VA, USA). Multidrug-resistant strains (Pseudomonas aeruginosa 138, 431, 434, 557, 559, 778, 1034, 1162, 3290, 3399, 3592, 3904, 4007, 4319, 4891, 5018, and 671973) were obtained from the Chonnam National University Hospital (Gwangju, South Korea).
as §1

**Q.** Which MIC does the source give for ILKKLLKKVKSI-NH2 [Hp1404-T1d] here?
**A.** 12.5 µM

Same assay, conditions: P. aeruginosa 431 (multidrug-resistant); broth micro-dilution, 37 °C, 18–24 h, triplicate

**Q.** For ILKKLLKKVKSI-NH2 [Hp1404-T1d], which MIC is on record?
**A.** 3.13 µM

Same assay, conditions: P. aeruginosa 434 (multidrug-resistant); broth micro-dilution, 37 °C, 18–24 h, triplicate

**Q.** With ILKKLLKKVKSI-NH2 [Hp1404-T1d] as the substance, how does the MIC read?
**A.** 3.13 µM

Same assay, conditions: P. aeruginosa 557 (multidrug-resistant); broth micro-dilution, 37 °C, 18–24 h, triplicate

**Q.** ILKKLLKKVKSI-NH2 [Hp1404-T1d] was tested. Which MIC did it give?
**A.** 3.13 µM

Same assay, conditions: P. aeruginosa 559 (multidrug-resistant); broth micro-dilution, 37 °C, 18–24 h, triplicate

**Q.** With ILKKLLKKVKSI-NH2 [Hp1404-T1d] as the substance, how does the MIC read?
**A.** 12.5 µM

Same assay, conditions: P. aeruginosa 778 (multidrug-resistant); broth micro-dilution, 37 °C, 18–24 h, triplicate

**Q.** ILKKLLKKVKSI-NH2 [Hp1404-T1d] was tested. Which MIC did it give?
**A.** 3.13 µM

Same assay, conditions: P. aeruginosa 1034 (multidrug-resistant); broth micro-dilution, 37 °C, 18–24 h, triplicate

**Q.** Which MIC does the source give for ILKKLLKKVKSI-NH2 [Hp1404-T1d] here?
**A.** 3.13 µM

Same assay, conditions: P. aeruginosa 1162 (multidrug-resistant); broth micro-dilution, 37 °C, 18–24 h, triplicate

**Q.** ILKKLLKKVKSI-NH2 [Hp1404-T1d] was tested. Which MIC did it give?
**A.** 1.56 µM

Same assay, conditions: P. aeruginosa 3290 (multidrug-resistant); broth micro-dilution, 37 °C, 18–24 h, triplicate

**Q.** ILKKLLKKVKSI-NH2 [Hp1404-T1d] was tested. Which MIC did it give?
**A.** 6.25 µM

Same assay, conditions: P. aeruginosa 3399 (multidrug-resistant); broth micro-dilution, 37 °C, 18–24 h, triplicate

**Q.** With ILKKLLKKVKSI-NH2 [Hp1404-T1d] as the substance, how does the MIC read?
**A.** 1.56 µM

Same assay, conditions: P. aeruginosa 3543 (multidrug-resistant); broth micro-dilution, 37 °C, 18–24 h, triplicate

**Q.** How did the MIC turn out when ILKKLLKKVKSI-NH2 [Hp1404-T1d] was run?
**A.** 25 µM

Same assay, conditions: P. aeruginosa 3592 (multidrug-resistant); broth micro-dilution, 37 °C, 18–24 h, triplicate

**Q.** Which MIC does the source give for ILKKLLKKVKSI-NH2 [Hp1404-T1d] here?
**A.** 3.13 µM

Same assay, conditions: P. aeruginosa 3904 (multidrug-resistant); broth micro-dilution, 37 °C, 18–24 h, triplicate

**Q.** For ILKKLLKKVKSI-NH2 [Hp1404-T1d], which MIC is on record?
**A.** 6.25 µM

Same assay, conditions: P. aeruginosa 4007 (multidrug-resistant); broth micro-dilution, 37 °C, 18–24 h, triplicate

**Q.** For ILKKLLKKVKSI-NH2 [Hp1404-T1d], which MIC is on record?
**A.** 6.25 µM

Same assay, conditions: P. aeruginosa 4319 (multidrug-resistant); broth micro-dilution, 37 °C, 18–24 h, triplicate

**Q.** Which MIC does the source give for ILKKLLKKVKSI-NH2 [Hp1404-T1d] here?
**A.** 3.13 µM

Same assay, conditions: P. aeruginosa 4891 (multidrug-resistant); broth micro-dilution, 37 °C, 18–24 h, triplicate

**Q.** Which MIC does the source give for ILKKLLKKVKSI-NH2 [Hp1404-T1d] here?
**A.** 3.13 µM

Same assay, conditions: P. aeruginosa 5018 (multidrug-resistant); broth micro-dilution, 37 °C, 18–24 h, triplicate

**Q.** ILKKLLKKVKSI-NH2 [Hp1404-T1d] was tested. Which MIC did it give?
**A.** 1.56 µM

Same assay, conditions: P. aeruginosa 671973 (multidrug-resistant); broth micro-dilution, 37 °C, 18–24 h, triplicate

**Q.** For ILKKLLKKVKSI-NH2 [Hp1404-T1d], which MIC is on record?
**A.** 1.56 µM

Same assay, conditions: P. aeruginosa ATCC 27853; broth micro-dilution, 2 × 10^5 CFU/mL, 37 °C, 18–24 h, A600, triplicate

**Q.** With ILKKLLKKVKSI-NH2 [Hp1404-T1d] as the substance, how does the MIC read?
**A.** 1.56 µM
